Assay results: patent US20050282818A1, “Ubiquitin ligase inhibitors” (Rigel Pharmaceuticals, Inc., priority 2004, published 2005)
Where two headings read alike, the source gives them in different places.

How the values were obtained:
TRAF6/Uev1A/Ubc13 = target: T1, TRAF6/Uev1A/Ubc13 (Homo sapiens, UniProt Q9Y4K3); test: TRAF6/Uev1A/Ubc13 plate-based ubiquitin ligase assay; assay type: biochemical
T1 sequence (Q9Y4K3 1-522): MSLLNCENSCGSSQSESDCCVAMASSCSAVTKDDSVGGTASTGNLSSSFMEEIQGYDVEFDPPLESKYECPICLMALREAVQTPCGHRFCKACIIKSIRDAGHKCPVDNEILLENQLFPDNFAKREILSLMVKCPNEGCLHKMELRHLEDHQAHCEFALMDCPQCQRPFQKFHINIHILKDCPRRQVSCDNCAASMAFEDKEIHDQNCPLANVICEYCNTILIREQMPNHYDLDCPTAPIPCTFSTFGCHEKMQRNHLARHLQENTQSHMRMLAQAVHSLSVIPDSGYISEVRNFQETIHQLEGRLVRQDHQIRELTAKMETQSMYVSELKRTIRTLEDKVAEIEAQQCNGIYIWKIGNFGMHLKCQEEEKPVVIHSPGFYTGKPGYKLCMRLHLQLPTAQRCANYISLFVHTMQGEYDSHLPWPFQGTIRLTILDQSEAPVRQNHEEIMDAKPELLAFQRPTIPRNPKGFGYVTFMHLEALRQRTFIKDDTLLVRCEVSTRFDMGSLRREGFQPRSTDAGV
In short: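 Ligase activity was read as luminescence from anti-Flag/HRP detection of Flag-ubiquitin bound to casein-blocked Ni-plates alongside His-ubiquitin after a 1 h room-temperature reaction. Buffer: 62.5 mM Tris pH 7.5, 6.25 mM MgCl2, 1.0 mM DTT, 2 μM ATP; E1, Uev1a/Ubc13 and TRAF6 added last to start. IC50s derived across compound concentrations.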

A549 cells = test: Cell proliferation PAD assay, A549; assay type: cell-based; details: Homo sapiens, 48 hours
In short: (§1)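 Cells were seeded at 2,000 per well and dosed 24 h later, in duplicate, with 6.3-fold dilution series from a 10 mM master stock diluted 500-fold into wells. After 48 h at 37 °C, 5% CO2, cells were formamide-fixed, DAPI-stained and imaged to count live, apoptotic and dead cells.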

H1299 cells = test: Cell proliferation PAD assay, H1299; assay type: cell-based; details: Homo sapiens, 48 hours
In short: as §1

[1] = NCI-H1299, 6pt, read-out: H1299 6pt
[2] = NCI-H1299, 3pt, read-out: H1299 3pt

Structure (SMILES): O=[N+]([O-])c1ccc(Sc2cccc3cccnc23)c2nonc12 [compound 5, 8-[(7-Nitro-2,1,3-benzoxadiazol-4-yl)thio]quinoline]
- IC50 (TRAF6/Uev1A/Ubc13): 1 to 20 µM
- IC50 (A549 cells; 6pt, read-out: A549 6pt): < 1 µM
- IC50 (H1299 cells; [1]): < 1 µM

Structure (SMILES): O=[N+]([O-])c1ccc(Oc2c(Cl)cc(S(=O)(=O)Nc3cccc4nsnc34)cc2Cl)c(Cl)c1 [compound 73, N-2,1,3-benzothiadiazol-4-yl-3,5-dichloro-4-(2-chloro-4-nitrophenoxy)benzenesulfonamide]
- IC50 (TRAF6/Uev1A/Ubc13): 1 to 20 µM
- IC50 (A549 cells; 3pt, read-out: A549 3pt): ≥ 20 µM
- IC50 (A549 cells; 6pt, read-out: A549 6pt): 1 to 20 µM
- IC50 (H1299 cells; [2]): ≥ 20 µM
- IC50 (H1299 cells; [1]): 1 to 20 µM

Structure (SMILES): O=S(=O)(Nc1cccc2nonc12)c1ccc(Oc2ncc(C(F)(F)F)cc2Cl)cc1 [compound 78, N-2,1,3-benzoxadiazol-4-yl-4-{[3-chloro-5-(trifluoromethyl)pyridin-2-yl]oxy}benzenesulfonamide]
- IC50 (TRAF6/Uev1A/Ubc13): 1 to 20 µM

Structure (SMILES): O=[N+]([O-])c1ccc(N2CCN(c3cc(C(F)(F)F)ccn3)CC2)c2nonc12 [compound 90, 4-nitro-7-{4-[4-(trifluoromethyl)pyridin-2-yl]piperazin-1-yl}-2,1,3-benzoxadiazole]
- IC50 (TRAF6/Uev1A/Ubc13): 1 to 20 µM
- IC50 (A549 cells; 3pt, read-out: A549 3pt): ≥ 20 µM
- IC50 (A549 cells; 6pt, read-out: A549 6pt): 1 to 20 µM
- IC50 (H1299 cells; [2]): ≥ 20 µM
- IC50 (H1299 cells; [1]): 1 to 20 µM

Structure (SMILES): O=S(=O)(Nc1cccc2nsnc12)c1ccc(Oc2ccccc2)cc1 [compound 94, N-2,1,3-benzothiadiazol-4-yl-4-phenoxybenzenesulfonamide]
- IC50 (TRAF6/Uev1A/Ubc13): 1 to 20 µM

Structure (SMILES): O=[N+]([O-])c1ccc(N2CCN(c3ncccn3)CC2)c2nonc12 [compound 109, 4-nitro-7-(1,3-(pyrimidin-2-yl)piperazin-1-yl)-2,1,3-benzoxadiazole]
- IC50 (TRAF6/Uev1A/Ubc13): 1 to 20 µM
- IC50 (A549 cells; 3pt, read-out: A549 3pt): ≥ 20 µM
- IC50 (H1299 cells; [2]): ≥ 20 µM

Structure (SMILES): O=[N+]([O-])c1ccc(Oc2ccc(S(=O)(=O)Nc3cccc4nonc34)cc2Cl)c(C(F)(F)F)c1 [compound 114, N-2,1,3-benzoxadiazol-4-yl-3-chloro-4-[4-nitro-2-(trifluoromethyl)phenoxy]benzenesulfonamide]
- IC50 (TRAF6/Uev1A/Ubc13): 1 to 20 µM

Structure (SMILES): N#Cc1ccc(N2CCN(c3ccc([N+](=O)[O-])c4nonc34)CC2)nc1 [compound 121, 6-[4-(7-nitro-2,1,3-benzoxadiazol-4-yl)piperazin-1-yl]nicotinonitrile]
- IC50 (TRAF6/Uev1A/Ubc13): 1 to 20 µM
- IC50 (A549 cells; 3pt, read-out: A549 3pt): ≥ 20 µM
- IC50 (H1299 cells; [2]): ≥ 20 µM

Structure (SMILES): Cc1ccc(N2CCN(c3ccc([N+](=O)[O-])c4nonc34)CC2)cc1C [compound 140, 4-[4-(3,4-dimethylphenyl)piperazin-1-yl]-7-nitro-2,1,3-benzoxadiazole]
- IC50 (TRAF6/Uev1A/Ubc13): 1 to 20 µM
- IC50 (A549 cells; 3pt, read-out: A549 3pt): ≥ 20 µM
- IC50 (H1299 cells; [2]): ≥ 20 µM

Structure (SMILES): N#CC1(c2ccccc2)CCN(c2ccc([N+](=O)[O-])c3nonc23)CC1 [compound 141, 1-(7-nitro-2,1,3-benzoxadiazol-4-yl)-4-phenylpiperidine-4-carbonitrile]
- IC50 (TRAF6/Uev1A/Ubc13): 1 to 20 µM
- IC50 (A549 cells; 3pt, read-out: A549 3pt): ≥ 20 µM
- IC50 (H1299 cells; [2]): ≥ 20 µM

Structure (SMILES): O=C(c1ccc(F)cc1)C1CCN(c2ccc([N+](=O)[O-])c3nonc23)CC1 [compound 142, (4-fluorophenyl)[1-(7-nitro-2,1,3-benzoxadiazol-4-yl)piperidin-4-yl]methanone]
- IC50 (TRAF6/Uev1A/Ubc13): 1 to 20 µM
- IC50 (A549 cells; 3pt, read-out: A549 3pt): ≥ 20 µM
- IC50 (H1299 cells; [2]): ≥ 20 µM

Structure (SMILES): CC1CC(C)CN(c2ccc([N+](=O)[O-])c3nonc23)C1 (centres unmarked) [compound 144, 4-(3,5-dimethylpiperidin-1-yl)-7-nitro-2,1,3-benzoxadiazole]
- IC50 (TRAF6/Uev1A/Ubc13): 1 to 20 µM
- IC50 (H1299 cells; [2]): ≥ 20 µM

Structure (SMILES): Cc1ccc(Cl)cc1N1CCN(c2ccc([N+](=O)[O-])c3nonc23)CC1 [compound 145, 4-[4-(5-chloro-2-methylphenyl)piperazin-1-yl]-7-nitro-2,1,3-benzoxadiazole]
- IC50 (TRAF6/Uev1A/Ubc13): 1 to 20 µM
- IC50 (H1299 cells; [2]): ≥ 20 µM

Structure (SMILES): O=[N+]([O-])c1ccc(N2CCN(c3ccc(O)cc3)CC2)c2nonc12 [compound 146, 4-[4-(7-nitro-2,1,3-benzoxadiazol-4-yl)piperazin-1-yl]phenol]
- IC50 (TRAF6/Uev1A/Ubc13): 1 to 20 µM
- IC50 (A549 cells; 3pt, read-out: A549 3pt): 1 to 20 µM
- IC50 (H1299 cells; [2]): 1 to 20 µM
